A short description of data set [1]: Photochromic PMMA cast film: initial coloration density, maximum absorption wavelength and fatigue life in xenon fadeometer (Example 9).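 As to Initial color density: initial color density is an absorbance value so the % unit is wrong.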 It is filed as physicochemical. The following applies: PMMA cast film 0.1 mm; for λmax / Initial color density: xenon light; for Initial color density / T1/2: no stabilizer; for T1/2: time for color density to fall to half of initial value, xenon fadeometer. From the text:
The thickness of the cast film was adjusted to 0.1 mm.
(§1) T1/2 is defined as the time required for the color density to decrease to half of its initial value when the film is exposed to the fadeometer.

Data set [2] in a line: Durability of poly(allyl diglycol carbonate) lens impregnated with the compound in silicone oil, as in Example 9 (Example 10). Type of data set: physicochemical. The arrangement: Initial color density: unit not given here. To be noted: silicone oil impregnation; for Initial color density: 1.0×10^-4 mole/g; for T1/2: xenon fadeometer. As for the experimental part: as §1
The solution was impregnated in the surface of a lens composed of poly(allyl diglycol carbonate) at 200° C. for 1 hour. The concentration of the solution was adjusted to 1.0×10^-4 mole/g.

In data set [1], `CCCCC1CC2CCCC(C1)C21c2sc(C)c(CC)c2C(C2C(I)C2I)=C2C(=O)N(CC3CCCCC3C#N)C(=O)C21` (centres unmarked) [(27)] had a λmax of 553 nm, an Initial color density of 0.68% and a T1/2 of 51 h.

On to `COC(=O)CN1C(=O)C2=C(C3CC3)c3ccoc3C3(C4CCC3CC4)C2C1=O` (centres unmarked) [(20)], for which, in data set [2], the λmax is given as 535 nm, the Initial color density is 0.73 and the T1/2 was 95 h. In data set [1], this compound gave a λmax of 531 nm, an Initial color density of 0.82% and a T1/2 of 89 h.

Consider `N#CCOCN1C(=O)C2=C(C3CC3c3ccccc3)c3sccc3C3(C2C1=O)C1(Cl)CCC3(Cl)CC1` (centres unmarked) [(14)], for which, in data set [1], the λmax is 552 nm, the Initial color density was determined as 0.58% and the T1/2 worked out at 69 h.

In data set [1], `CC1=C2C(=O)N(CCc3cccc4ccccc34)C(=O)C2C2(c3c1sc1c3CCCC1)C1CCCC2CCC1` (centres unmarked) [(F), reference compound] yielded a λmax of 508 nm, an Initial color density of 0.47% and a T1/2 of 13 h.

`Cc1cc2c(s1)C1(C3CCC1CC3)C1C(=O)N(C[N+](=O)[O-])C(=O)C1=C2C1CC1` (centres unmarked) [(8)]: in data set [2], the λmax is listed as 578 nm, the Initial color density is reported as 0.63 and the T1/2 was 80 h. In data set [1], this compound yielded a λmax of 571 nm, an Initial color density of 0.69% and a T1/2 of 75 h.

For `COc1cc(OC)c2c(c1)C(C1CC1O)=C1C(=O)N(C3CCC([N+](=O)[O-])CC3)C(=O)C1C21C2CCCC1(Cl)CCC2` (centres unmarked) [(29)], in data set [1], the λmax stood at 588 nm, the Initial color density is 0.52% and the T1/2 stood at 62 h.

In data set [1], `COCCOCN1C(=O)C2=C(C3(F)C(F)(F)C3(F)F)c3c(oc4ccccc34)C3(C2C1=O)C1(F)CCC3(F)CC1` (centres unmarked) [(16)] returned a λmax of 498 nm, an Initial color density of 0.82% and a T1/2 of 91 h.

In data set [1], `CC1=C2C(=O)N(CC#N)C(=O)C2C2(c3occc31)C1CCC2CC1` (centres unmarked) [(D), reference compound] showed a λmax of 535 nm, an Initial color density of 0.90% and a T1/2 of 48 h.

As for `CC1=C2C(=O)N(C[N+](=O)[O-])C(=O)C2C2(c3sc(C)cc31)C1CCC2CC1` (centres unmarked) [(C), reference compound], in data set [1], the λmax was found to be 556 nm, the Initial color density amounted to 0.72% and the T1/2 was found to be 80 h.

For the compound `CNC(=O)CN1C(=O)C2=C(C3CC3C(F)(F)F)c3cc([N+](=O)[O-])sc3C3(C4CCC3CC4)C2C1=O` (centres unmarked) [(11)], in data set [1], the λmax is given as 530 nm, the Initial color density is recorded as 0.75% and the T1/2 worked out at 65 h.

For the compound `CC(=O)OCN1C(=O)C2=C(C3CC3)c3sc(Br)cc3C3(C4CC5CC(C4)CC3C5)C2C1=O` (centres unmarked) [(42)], in data set [2], the λmax is listed as 553 nm, the Initial color density is 0.51 and the T1/2 is 71 h. In data set [1], this compound had a λmax of 548 nm, an Initial color density of 0.57% and a T1/2 of 68 h.

In data set [2], `COC(=O)C(C)N1C(=O)C2=C(C3CC3)c3cc(-c4cccc(OC)c4)sc3C3(C4CC5CC(Cl)(C4)CC3(Cl)C5)C2C1=O` (centres unmarked) [(35)] registered a λmax of 580 nm, an Initial color density of 0.67 and a T1/2 of 90 h. Further, in data set [1], the λmax was found to be 574 nm, the Initial color density was found to be 0.73% and the T1/2 was determined as 85 h.

In data set [1], `Cn1c2c(c3ccccc31)C1(C3CC4CC(C3)CC1C4)C1C(=O)N(CC(C)(C)CCOC(=O)CBr)C(=O)C1=C2C1CC1CCCc1ccccc1` (centres unmarked) [(38)] came in with a λmax of 592 nm, an Initial color density of 0.61% and a T1/2 of 68 h.

In the case of `Cc1cc2c(n1C)C1(C3CCCC1CCC3)C1C(=O)OC(=O)C1=C2C1CC1` (centres unmarked) [(53)], in data set [2], the λmax is recorded as 530 nm, the Initial color density is recorded as 1.08 and the T1/2 was 60 h. In data set [1], this compound gave a λmax of 525 nm, an Initial color density of 1.18% and a T1/2 of 56 h.

`COc1cc(OC)c2c(c1)C(C1C(C)(C)C1(C)C)=C1C(=O)N(Cc3ccc4ccccc4c3)C(=O)C1C21C2CCC1CC2` (centres unmarked) [(18)]: in data set [1], the λmax is given as 603 nm, the Initial color density was determined as 0.62% and the T1/2 is 61 h.

In data set [2], `COc1cc2c(c(OC)c1OC)C1(C3CCC1CC3)C1C(=O)OC(=O)C1=C2C1CC1` (centres unmarked) [(51)] gave a λmax of 562 nm, an Initial color density of 0.82 and a T1/2 of 55 h. Moreover, in data set [1], the λmax was found to be 561 nm, the Initial color density is given as 0.92% and the T1/2 came to 52 h.

In data set [1], `COc1cc2c(c(OC)c1OC)C1(C3CC4CC1CC(OC)(C4)C3)C1C(=O)N(CC(=O)NCCBr)C(=O)C1=C2C1CC1C(Cl)(Cl)Cl` (centres unmarked) [(39)] came in with a λmax of 527 nm, an Initial color density of 0.58% and a T1/2 of 65 h.

`CC(C)COC(=O)CN1C(=O)C2=C(C3C(CCl)C3CCl)c3cc(Br)sc3C3(C4CCCC3CCC4)C2C1=O` (centres unmarked) [(23)]: in data set [1], the λmax worked out at 539 nm, the Initial color density is reported as 0.87% and the T1/2 was found to be 53 h.

In the case of `CN(C)c1ccc2cc(CCCN3C(=O)C4=C(C5CC5)c5c([N+](=O)[O-])csc5C5(C6CC7CC(C6)CC5C7)C4C3=O)ccc2c1` (centres unmarked) [(47)], in data set [1], the λmax came out at 529 nm, the Initial color density was found to be 0.72% and the T1/2 turned out to be 52 h.

On to `Cc1cc2c(s1)C1(C3CC4CC(Cl)(C3)CC1(Cl)C4)C1C(=O)OC(=O)C1=C2C1CC1` (centres unmarked) [(58)], for which, in data set [1], the λmax was found to be 554 nm, the Initial color density was determined as 1.24% and the T1/2 was found to be 48 h.

In data set [1], `CCSC1CC1C1=C2C(=O)N(C(CC)COC(=O)OC[N+](=O)[O-])C(=O)C2C2(c3scc([N+](=O)[O-])c31)C1CC3CC2CC(C)(C3)C1` (centres unmarked) [(37)] showed a λmax of 540 nm, an Initial color density of 0.77% and a T1/2 of 75 h.

For the compound `COC1CC1C1=C2C(=O)N(Cc3ccc4ccccc4c3)C(=O)C2C2(c3c1sc1ccccc31)C1CCC2CC1` (centres unmarked) [(19)], in data set [1], the λmax turned out to be 524 nm, the Initial color density is listed as 0.58% and the T1/2 amounted to 81 h.

On to `O=C1C2=C(C3CC3)c3sc4c(c3C3(C5CCCC3CCC5)C2C(=O)N1CCc1cccc2ccccc12)CCCC4` (centres unmarked) [(33)], for which, in data set [2], the λmax was 525 nm, the Initial color density is recorded as 0.49 and the T1/2 is 80 h. For the same compound, in data set [1], the λmax worked out at 519 nm, the Initial color density is reported as 0.56% and the T1/2 is 7.8 h.

On to `CC1=C2C(=O)N(CCCc3ccc4cc(N(C)C)ccc4c3)C(=O)C2C2(c3scc([N+](=O)[O-])c31)C1CC3CC(C1)CC2C3` (centres unmarked) [(E), reference compound], for which, in data set [1], the λmax is on record as 535 nm and the T1/2 was 14 h.

As for `COC(=O)C(C)N1C(=O)C2=C(C3CC3OC(C)(C)C)c3cc(Cl)oc3C3(C4CCCC3(C)CC(C)(C)C4)C2C1=O` (centres unmarked) [(26)], in data set [1], the λmax stood at 546 nm, the Initial color density is 0.78% and the T1/2 turned out to be 72 h.

In data set [1], `COC12CCCC(CCC1)C21c2c(Cl)csc2C(C2CC2CCc2ccccc2)=C2C(=O)N(CC(=O)NCCBr)C(=O)C21` (centres unmarked) [(28)] showed a λmax of 526 nm, an Initial color density of 0.56% and a T1/2 of 54 h.

Take `CCC(C#N)N1C(=O)C2=C(C3CC3[N+](=O)[O-])c3c(sc4c3CCCC4)C3(C4CCCC3(C)CCC4)C2C1=O` (centres unmarked) [(25)]: in data set [2], the λmax is on record as 565 nm, the Initial color density was 0.65 and the T1/2 is 79 h. For the same compound, in data set [1], the λmax is reported as 562 nm, the Initial color density was 0.71% and the T1/2 worked out at 76 h.

In data set [1], `CCC(C(=O)OCCc1ccc2ccccc2c1)N1C(=O)C2=C(C)c3ccsc3C3(C4CC5CC(C4)CC3C5)C2C1=O` (centres unmarked) [(A), reference compound] yielded a λmax of 520 nm, an Initial color density of 0.51% and a T1/2 of 24 h.

In data set [1], `CC1=C2C(=O)N(CCCCC(=O)OCCc3ccc4ccccc4c3)C(=O)C2C2(c3sccc31)C1CC3CC(C1)CC2C3` (centres unmarked) [(B), reference compound] gave a λmax of 538 nm, an Initial color density of 0.49% and a T1/2 of 16 h.

On to `CCOC(=O)C12CC3CC(C1)C1(c4c([N+](=O)[O-])csc4C(C4CC4Br)=C4C(=O)N(CC(F)(F)F)C(=O)C41)C(C(=O)OCC)(C3)C2` (centres unmarked) [(43)], for which, in data set [1], the λmax was 509 nm, the Initial color density stood at 0.62% and the T1/2 came out at 72 h.

`CC1=C2C(=O)OC(=O)C2C2(c3sc4c(c31)CCCC4)C1CCCC2CCC1` (centres unmarked) [(G), reference compound]: in data set [1], the λmax is reported as 585 nm, the Initial color density worked out at 0.71% and the T1/2 amounted to 10 h.

For `O=C1OC(=O)C2C1=C(C1CC1)c1c(oc3ccccc13)C21C2CCC1CC2` (centres unmarked) [(52)], in data set [1], the λmax is listed as 534 nm, the Initial color density stood at 1.21% and the T1/2 worked out at 54 h.

In data set [1], `COC12CCC(CC1)C21c2oc3ccccc3c2C(C2CC2(Br)Br)=C2C(=O)N(CC(=O)OC(C)(C)CCC#N)C(=O)C21` (centres unmarked) [(13)] had a λmax of 495 nm, an Initial color density of 0.69% and a T1/2 of 47 h.

The record behind these values is US5708063A, “Photochromic compound” (Tokuyama Corporation, priority 1993, dated 1998).
